Test results reported in US11911411B2, “Sulfated glycosaminoglycan biomaterials as proteoglycan mimics” (Glycologix, LLC, priority 2020, dated 2024).

Tested on: bladder permeability in LPS-treated URO-MCP-1 mice
Assay: CE-MRI (Gd-DTPA) assessment of bladder permeability, LPS-treated URO-MCP-1 transgenic mouse model of IC/BPS
Type: in vivo
Settings: 20 mg/ml, 100 μl
Protocol: The URO-MCP-1 transgenic model was described previously. Cystitis with accompanying permeability were induced by intravesical administration of LPS at a sub-noxious dose of 1 jig of LPS in 100 μl of saline (Day 0, 9 a.m.). One control group was administered saline (100 μl) only (saline URO-MCP-1). Another control group consisting of wild-type (WT) mice was also administered saline only (saline-WT). Bladders were flushed 3 times with saline to remove any excess LPS 1 hour post-LPS injection. The next day (Day 1, 9 am) animals were treated with CS or SuperGAG (20 mg/ml in saline; 100 μl) or saline and the initial permeability was assessed 3 hours later (Day 1, 12:00 p.m.).
For MRI assessment of permeability, mice were anesthetized and treated as described above, but instead of euthanizing the mice, on Day 1, Day 3, and Day 5 the mice were anesthetized, instilled with the contrast agent Gd-DTPA and placed into the MRI instrument. MRI experiments were conducted on a 7 Tesla 30 cm-bore Bruker Biospec MRI system (Bruker Biospin Corporation, Woodlands, TX, U.S.A.). MRI scans were obtained at 1-, 3-, and 5-days following LPS instillation. For the bladder images, Gd-DTPA (0.034 mM Gd-DTPA diluted to 100 μl in saline), was administered via an intravesical catheter, for visualization of loss of permeability of the bladder urothelium. Bladder CE-MRI signal intensity changes were determined 7 minutes. post-contrast. For all MR images, a T1-weighted RARE (rapid acquisition with relaxation enhancement) MRI pulse sequence was used with the following parameters: repetition time (TR) of 1200 ms, echo time (TE) of 9 ms, a RARE factor of 4, 4 averages, an image slice thickness of 1 mm, a matrix of 256×256, a field-of-view (FOV) of 3.5×3.5 cm2, and with both motion and fat suppression. Animals were euthanized and the bladders placed in formalin for histopathology.

In the case of chondroitin sulfate [CS], the “percent change in MRI signal intensity versus LPS-treated URO-MCP-1 mice, day 1” value (day 1, *p< (figure not given)) is reported as “significant decrease”, the “percent change in MRI signal intensity versus LPS-treated URO-MCP-1 mice, day 3” value (day 3, ***p<0.0001 for both) is reported as “significant decrease” and the “percent change in MRI signal intensity versus LPS-treated URO-MCP-1 mice, day 5” value (day 5, **p<0.01 for SuperGAG) is reported as “not significantly different to control”.
